Common to all, as to assay type: physicochemical
The nature of series [1]: Stability of solutions (pH, dilution in water). From the text:
(§1) Crystallization or precipitation occurs after mixing the glycol phase and water phase.
The solubility of baicalin can be increased by raising the concentration of hydrotropes.

A short description of series [2]: Solubility in water, with or without hydrotropes, at room temperature.
The nature of series [3]: Solubility in organic solvent PEG-4.
Source text: as §1

The structures appear in SMILES notation. Bounds are passed on as bounds.

For `O=C(O)[C@H]1O[C@@H](Oc2cc3oc(-c4ccccc4)cc(=O)c3c(O)c2O)[C@H](O)[C@@H](O)[C@@H]1O` [Baicalin], the “degradation as a function of pH” value in series [1] (aqueous) is reported as “degradation happens at pH>5”. Also, the “stability of solution after dilution in water” value in series [1] (hydrotrope solution diluted in water) is given as “still stable if diluted in water”; in series [1] (solution in organic solvent such as PEG-4, diluted in water), “not stable any more”. In addition, the water solubility in series [2] is under 0.01%. The “amount dissolved by PEG-4” value in series [3] was determined as 3%.

The values above are taken from US9107853B2, “Compositions containing phenolic compounds and hydrotropes for cosmetic use” (L'Oreal S.A., priority 2012, dated 2015).
